Data as given in PMC6941661 (Cell host & microbe, 2019).

System: N9 NA of A/Shanghai/2/2013 (SH13) (H7N9), virus A/Shanghai/2/2013 (H7N9)-PR8-IDCDC-RG32A
Assay type: biochemical, Influenza A virus (A/Shanghai/2/2013(H7N9))

Structure (SMILES): CC(=O)N[C@H]1[C@H]([C@H](O)[C@H](O)CO)OC(C(=O)O)=C[C@@H]1N=C(N)N [zanamivir]
- IC50: 7.6 nM
